Source: patent US12156871B2, “Substituted azacycles as muscarinic M1 receptor positive allosteric modulators” (SUVEN LIFE SCIENCES LIMITED, priority 2017, dated 2024)

Key:
[1] = Rodent pharmacokinetic study; type: in vivo, Male Wistar rats; details: rat; for AUC(0-t) / clearance / half-life / Cmax: male, Wistar, plasma; for F: oral 3 mg/kg vs i.v. 1 mg/kg
Procedure: Male Wistar rats (260±50 grams) were used as experimental animals. Animals were housed individually in polypropylene cage. Two days prior to study, male Wistar rats were anesthetized with isoflurane for surgical placement of jugular vein catheter. Rats were randomly divided for oral (3 mg/kg) and intravenous (i.v) (1 mg/kg) dosing (n=3/group) and fasted overnight before oral dosing (p.o.). However, rats allocated to intravenous (i.v.) dosing food and water was provided ad libitum.
At pre-determined point, blood was collected through jugular vein and replenished with an equivalent volume of normal saline. Collected blood was transferred into a labeled eppendorf tube containing 10 μL of heparin as an anticoagulant. Typically blood samples were collected at following time points: 0.08, 0.25, 0.5, 1, 2, 4, 6, 8, and 24 h post dose. Blood was centrifuged at 4000 rpm for 10 minutes. Plasma was separated and stored frozen at −80° C. until analysis. The concentrations of the test compounds were quantified in plasma by qualified LC-MS/MS method using suitable extraction technique. The test compounds were quantified in the calibration range around 1-1000 ng/mL in plasma. Study samples were analyzed using calibration samples in the batch and quality control samples spread across the batch.
Pharmacokinetic parameters Cmax, AUCt, T1/2, clearance and bioavailability (F) were calculated by non-compartmental model using standard non-compartmental model by using Phoenix WinNonlin 6.0.2 or 6.0.3 version Software package and the results are tabulated below.

[2] = Object recognition task model; type: in vivo, Male Wistar rats; details: rat, 3 mg/kg, p.o.; for Exploration time mean ± S.E.M, Familiar object / Exploration time mean ± S.E.M, Novel object: choice trial 24 h after T1
Procedure: The cognition enhancing properties of compounds of this invention were estimated by using this model.
Male Wistar rats (8-10 weeks old) were used as experimental animals. Four animals were housed in each cage. Animals were kept on 20% food deprivation from a day prior to experimentation. Water was provided ad libitum throughout the experiment. Animals were maintained on a 12 h light/dark cycle in temperature and humidity controlled room. The experiment was carried out in an circular made up of acrylic. Rats were habituated to individual arenas for up to 1 h in the absence of any objects on day 1.
One group of 12 rats received vehicle and another set of animals received compound of the formula (I), before the familiar (T1) and choice (T2) trials. During the familiarization phase, (T1), the rats were placed individually in the arena for 3 minutes, in which two identical objects (a1 and a2) were positioned 10 cm from the wall. 24 h after T1, trial for long-term memory test was performed. The same rats were placed in the same arena as they were placed in T1 trial. During the choice phase (T2) rats were allowed to explore the arena for 3 minutes in presence of a copy of familiar object (a3) and one novel object (b). During the T1 and T2 trial, explorations of each object (defined as sniffing, licking, chewing or having moving vibrissae whilst directing the nose towards the object at a distance of less than 1 cm) were recorded using stopwatch. • T1 is the total time spent exploring the familiar objects (a1+a2). • T2 is the total time spent exploring the familiar object and novel object (a3+b).
The object recognition test was performed as described by Ennaceur, A., Delacour, J., 1988, A new one-trial test for neurobiological studies of memory in rats—Behavioural data, Behav. Brain Res., 31, 47-59.

[3] = Protein binding assay (HT dialysis), dog liver microsomes; type: in vitro ADME; details: pH 7.4, Dog liver microsomes 0.5 mg/mL, Mean ± SEM, n = 3, read-out: Fu Microsomes (converted)
Procedure: (§1) Unbound fractions of test compounds in plasma, brain homogenate and liver microsomes were determined using high-throughput dialysis (HT dialysis). Briefly, dialysis membranes were soaked in deionized water for 20 minutes and then in deionized water with 30% ethanol for 15 minutes and finally in phosphate buffer until use. Membranes were rinsed in phosphate buffer before assembling. The membranes were layered between teflon bars of dialysis assembly. Stock solutions of test compound/comparative compound were prepared at 10 mM in DMSO, diluted to 1 mM in acetonitrile and further diluted to 100 μM in mixture of water and acetonitrile (1:1 v/v). Human plasma (pool of 3) was prepared from human blood (3 donors) by centrifuging at 4000 rpm for 10 min at 4° C. Rat and dog blood were obtained on the day of the study and centrifuged to obtain plasma. Rat brains were isolated, cleaned and homogenized with 2 volumes of buffer (3 fold dilution). Liver microsomes were prepared at 0.5 mg/mL in phosphate buffer (100 mM, pH 7.4). The dialysate chambers were loaded with 150 μL of 100 mM phosphate buffer (pH 7.4) in triplicates. The matrix chambers were loaded with 150 μL of the plasma or brain homogenate or microsomal suspension spiked with test compound/comparative compound at a final concentration of 1 μM. 50 μL of the sample was removed from both the chambers at 0 h. The plate was sealed and incubated at 37° C. for 6 h at 100 rpm. After 6 h, 50 μL of the sample was removed from both the chambers. Equal volumes of buffer or human plasma/microsomal suspension were added to the plasma/microsomal and buffer samples respectively to create identical sample matrices for analysis. The samples were precipitated with 150 μL of acetonitrile containing fluoxetine as an internal standard. All the samples were centrifuged at 10000 rpm for 10 minutes at 4° C.

[4] = Protein binding assay (HT dialysis), human plasma; type: in vitro ADME; details: pH 7.4, Mean ± SEM, n = 3, read-out: Fu Plasma (converted)
Procedure: as §1

[5] = system: hippocampal theta oscillations; experiment: Theta modulation in dorsal hippocampus of anesthetized rats in combination with donepezil; type: in vivo, Male Wistar rats; details: in combination with donepezil (0.3 mg/kg, i.v.), test compound 1 mg/kg
Text: Male Wistar rats (240-320 g) were anesthetized by intraperitoneal administration of urethane (1.2 to 1.5 g/kg) for implantation of a catheter in the left femoral vein. The animal was placed in a stereotaxic frame for implanting an electrode (stainless steel wire, Plastics One) into the dorsal hippocampus (AP: 3.8 mm; ML: +2.2 mm; DV: 2.5 mm; Paxinos and Watson, 2004). Bipolar stimulating electrode (untwisted stainless steel wires, separated by 0.75-1.0 mm at their tips, Plastics One) was implanted in the Nucleus Pontis Oralis (NPO; AP: 7.8 mm; ML: 1.8 mm; DV: 6.0 mm; Paxinos and Watson, 2004). Additionally one electrode was implanted into the cerebellum which served as a reference. Hippocampal θ rhythm was evoked via a 6-s electrical stimulation train (20-160 μA, 0.3-ms pulse duration, 250 Hz) delivered to the NPO at a rate of 0.01 trains/s with a Grass S88 stimulator and PSIU6 stimulus isolation unit (Grass Medical Instruments, Quincy, MA). EEG was recorded at a rate of 1000 Hz using Ponemah (Version 5.2) software and stored for off-line analysis using NeuroScore (Version 3.0). […]
Power in the θ rhythm frequency in the stimulation period during the 30-min baseline period was calculated and the % changes in these measures post treatment were calculated. […]

| Compound | AUC(0-t) ([1]; iv, i.v. 1 mg/kg) [µg·h/mL] | clearance ([1]; iv, i.v. 1 mg/kg) [L/h/kg] | half-life ([1]; iv, i.v. 1 mg/kg) [min] | AUC(0-t) ([1]; oral 3 mg/kg) [µg·h/mL] | Cmax ([1]; oral 3 mg/kg) [µg/mL] | half-life ([1]; oral 3 mg/kg) [min] | F [1] [%] | Inference [2] | Exploration time mean ± S.E.M, Familiar object [2] [s] | Exploration time mean ± S.E.M, Novel object [2] [s] | fraction unbound at 6 h, 1 μM [3] | fraction unbound at 6 h, 1 μM [4] | effect of combination treatment on θ power compared with donepezil alone ([5]; FIG. 1) | θ power levels ([5]; anesthetized rat) |
| --- | --- | --- | --- | --- | --- | --- | --- | --- | --- | --- | --- | --- | --- | --- |
| COc1ccc(Cc2cc3c(nc2C)CN([C@H]2CCCC[C@@H]2O)C3=O)cc1 [Example 6, 6-(1S,2S-2-Hydroxycyclohexyl)-2-methyl-3-(4-methoxybenzyl)-6,7-dihydropyrrolo[3,4-b]pyridin-5-one] | 1.75 ± 0.312 | 0.558 ± 0.12 | 114 ± 30 | 3.52 | 1.47 ± 0.0265 | 78 ± 6 | 67 ± 5 | Active | 7.27 ± 1.31 | 15.9 ± 2.47 | 0.906 | 0.124 |  |  |
| COc1cccc(Cc2cc3c(nc2C)CN([C@H]2CCCC[C@@H]2O)C3=O)c1 [Example 38, 6-(1S,2S-2-Hydroxycyclohexyl)-2-methyl-3-(3-methoxybenzyl)-6,7-dihydropyrrolo[3,4-b]pyridin-5-one] | 0.662 ± 0.033 | 1.51 ± 0.072 | 30 | 1.01 | 0.861 ± 0.168 | 36 ± 6 | 51 ± 17 | Active | 10.12 ± 2.12 | 19.89 ± 3.32 | 0.843 | 0.192 | significantly higher than the donepezil alone | significant increase |
